Source: patent publication US20230101903A1, “COMPOUNDS USEFUL AS ANTI-VIRAL AGENTS” (NATURE CRETE PHARMACEUTICALS PC, priority 2020, published 2023)
Converted amounts (≈) assume the structure as drawn. Like-named read-outs stand apart in the source and are kept apart here.

Assays:
[1] = system: SARS-CoV-2 (isolate 30-287); test: microbe, parasite or virus in culture; type: cell-based; settings: Severe acute respiratory syndrome coronavirus 2, Vero C1008, VERO E6 cells, 96 hours, read-out: IC50, synthesis of new viral RNA
[2] = system: influenza virus A/FM/1/47; test: intracellular viral nucleoprotein (NP) by Western Blot Analysis in infected cells; type: cell-based, human Influenza A/FM/1/47/H1N1 strain; settings: p-cymene 200 ng/mL; 7, 10 and 24 hours after infection
Description: (§1) All assays in Examples 1, 2, 4 and 5 were performed with the human Influenza A/FM/1/47/H1N1 strain, and canine MDCK-II cells, whilst in Example 7 VERO E6 monkey kidney cells were used.
Intracellular viral nucleoprotein (NP) concentration was quantified by Western Blot Analysis at 7, 10 and 24 hours after infection.
A six-well culture plate was seeded with cells, which were then incubated at 37° C. for 24 hours under 5% CO2. The cells were infected with influenza virus A/FM/1/47 at 37° C. for 1 hour and then p-cymene was added (200 ng/mL). The cells were harvested at the indicated time periods (7h, 10h and 24h). The lysates were incubated for 20 min on ice and then centrifuged at 14,000×g for 10 min at 4° C. The supernatants were collected and equal amounts of proteins were resolved by sodium dodecyl sulfate (10%) polyacrylamide gel electrophoresis.

[3] = system: Influenza A/FM/1/47/H1N1; test: plaque-reduction assay in MDCK-II cells; type: cell-based, human Influenza A/FM/1/47/H1N1 strain; settings: 72 hours, all concentrations above 200 ng/mL
Description: as §1
The antiviral activity of p-cymene in Influenza A/FM/1/47/H1N1 was assayed in a plaque-reduction assay (expressed in forming plaques).
Canine MDCK-II cells were seeded into 6-well plastic plates and cultured at 37° C. under 5% CO2 for 24 hours. The MDCK-II cells were then inoculated with Influenza A/FM/1/47/H1N1 for 2 hours, after which the infected cells were washed and cultured for 72 hours at 37° C. under 5% CO2 in the presence of different concentrations of p-cymene in Minimum Essential Medium (MEM). Ribavirin was used as a control at a concentration of 25 μM.
After incubation, the virus-infected cells were observed microscopically. After 3 days of infection, cells were fixed with paraformaldehyde and cell monolayers were stained with crystal violet.

[4] = system: Influenza A/FM/1/47/H1N1; test: virus titer of supernatants of infected MDCK-II cells (plaque titration); type: cell-based, human Influenza A/FM/1/47/H1N1 strain
Description: as §1
MDCK-II cells in Minimal Essential Medium (MEM) were seeded into a 6-well plate and incubated at 37° C. The following day, the cells were infected with influenza A/FM/1/47/H1N1 and incubated at 37° C. for 2 hours, followed by washing extensively with serum free MEM.
The infected cells were then cultured in media supplemented with varying concentrations of Compound A at 37° C. for 24 to 48 hours. Supernatants of the infected cells, containing the newly synthesised virions, were harvested and titrated in MDCK-II cells. Upon plaque formation, the infected cells were washed with phosphate-buffered saline (PBS) and fixed with paraformaldehyde. Cell monolayers were stained with crystal violet and observed microscopically.

[5] = system: influenza virus A/FM/1/47/H1N1; test: Real-Time PCR of newly synthesized viral RNA (M1 genome copies) in infected MDCK-II cells; type: cell-based, human Influenza A/FM/1/47/H1N1 strain; settings: 12 hours
Description: as §1
MDCK-II cells were plated in 12-well plates. After overnight incubation, the cells were washed with phosphate-buffer saline (PBS) and infected with influenza virus A/FM/1/47/H1N1) for 2 hours at 37° C.
The inoculum was then removed and the cells were incubated with MEM containing various concentrations of Compound A for 12 hours.

[6] = pre-incubation (2 hours before infection)

Row | Structure (SMILES) | IC50 ([1]; co-incubation) | IC50 [1, 6] | amount of intracellular viral nucleoprotein (NP) [2] | plaque formation (number of forming plaques) [3] | virus titer ([4]; MDCK-II cells, 24 and 48 hpi, varying concentrations) | anti-viral action (conclusion of the in vitro studies) ([4]; compared with ribavirin) | synthesis of new viral RNA ([5]; all concentrations tested) | viral M1 genome copy numbers ([5]; nuclear RNA)
1 | Cc1ccc(C(C)C)cc1 [p-cymene] | 83 µg/mL | 59 µg/mL (≈ 440 µM) | significantly decreased | significant, dose-dependent decrease of plaque formation |  |  |  | 
2 | CCCOCC(CC)c1ccc(C)cc1 (stereo not shown) [Compound A] | 38 µg/mL | 9 µg/mL (≈ 43.6 µM) |  |  | significantly decreased virus titer | significant anti-viral action, comparable with that of ribavirin | inhibits | decreased
